Measured values from patent publication US20140235848A1, “METHOD FOR MAKING A PRECURSOR OF L-FUCOSE FROM D-GLUCOSE” (Glycom A/S, priority 2011, published 2014).

Experiment: Partition studies between organic solvent and water
Assay type: physicochemical
Conditions: for affinity to organic solvents as compared to aqueous media / solubility in organic versus aqueous solvents: conclusion in words from the partition studies
Protocol: 1,2-O-Cyclohexylidene-6-deoxy-β-L-talofuranose (197 mg) was partitioned between water (10 mL) and methylene chloride (10 mL), layers separated and the residual amount of solutions in the separatory funnel were partitioned with extra amount of water (5 mL) and methylene chloride (5 mL). The combined organic phases were evaporated and dried in vacuo (50° C., <1 mbar, 1 hour) to give 140 mg of the title compound. The aqueous solution gave 53 mg after lyophilisation and drying in vacuo (50° C., <1 mbar, 2 hrs). Using the same procedure, partition between ethyl acetate and water provided 127 mg of the title compound from ethyl acetate phase and 70 mg from the aqueous phase.
Analogously, 1,2-O-isopropylidene-6-deoxy-β-L-talofuranose (150 mg) was partitioned between methylene chloride (24 mg) and aqueous phase (126 mg). Partition between ethyl acetate and water furnished 7 mg and 143 mg of the title compound, respectively.

Row | Compound | affinity to organic solvents as compared to aqueous media | solubility in organic versus aqueous solvents | logP (solvent system CH2Cl2-water) | logP (solvent system ethyl acetate-water)
1 | C[C@H](O)[C@H]1O[C@@H]2OC(C)(C)O[C@@H]2[C@@H]1O [1,2-O-isopropylidene-6-deoxy-β-L-talofuranose] | higher affinity to aqueous medium | highly soluble in aqueous solutions and almost insoluble in organic solvents | 0.72 | 0.79
2 | C[C@H](O)[C@H]1O[C@@H]2OC3(CCCCC3)O[C@@H]2[C@@H]1O [6-deoxy-1,2-O-cyclohexylidene-β-L-talofuranose] | higher affinity to organic solvents as compared to aqueous media | much higher solubility of compound 1G in organic solvents as compared to aqueous solvents |  | 
